Values after ≈ are worked out from the molar mass of the structure shown.
Tests used:
Type in all cases: functional, organism-based
[1] = test system: Pseudoperonospora cubensis; assay: Fungicidal activity against Pseudoperonospora cubensis zoosporangia isolate obtained from downy mildew diseased cucumber plant assessed as reduction in mildew development measured after 7 to 10 days
Alternaria solani = assay: Fungicidal activity against Alternaria solani assessed as inhibition of mycelial growth
Blumeria graminis = assay: Fungicidal activity against Blumeria graminis infested wheat plant in greenhouse assessed as reduction in powdery mildew formation measured after 10 days; settings: 240 h
Fusarium verticillioides = assay: Fungicidal activity against Fusarium verticillioides assessed as inhibition of mycelial growth
Fusarium graminearum [2] = assay: Fungicidal activity against Wind-type carbendazim-sensitive Fusarium graminearum isolate
Dothiorella gregaria = assay: Fungicidal activity against Dothiorella gregaria assessed as inhibition of mycelial growth
Pyricularia grisea = assay: Fungicidal activity against Magnaporthe grisea assessed as inhibition of mycelial growth
Sclerotinia sclerotiorum = assay: Fungicidal activity against Sclerotinia sclerotiorum assessed as inhibition of mycelial growth
Colletotrichum truncatum = assay: Fungicidal activity against Colletotrichum capsici assessed as inhibition of mycelial growth
Phytophthora capsici = assay: Fungicidal activity against Phytophthora capsici assessed as inhibition of mycelial growth
Fusarium graminearum [3] = assay: Fungicidal activity against compound-sensitive Fusarium graminearum isolate
Fusarium oxysporum = assay: Fungicidal activity against Fusarium oxysporum assessed as inhibition of mycelial growth
Botrytis cinerea = assay: Fungicidal activity against Botryotinia fuckeliana assessed as inhibition of mycelial growth

SMILES: CCOC(=O)/C(C#N)=C(/N)c1ccccc1
- EC50 [1]: 12.7 µg/mL (≈ 58.9 µM)
- EC50 (Alternaria solani): 133 µg/mL (≈ 616 µM)
- EC50 (Blumeria graminis): > 1000 µg/mL
- EC50 (Fusarium verticillioides): 0.459 µg/mL (≈ 2.12 µM)
- EC50 (Fusarium graminearum [2]): 0.108 µg/mL (≈ 0.499 µM)
- EC50 (Dothiorella gregaria): 39.7 µg/mL (≈ 184 µM)
- EC50 (Pyricularia grisea): 77.1 µg/mL (≈ 356 µM)
- EC50 (Sclerotinia sclerotiorum): 72.1 µg/mL (≈ 333 µM)
- EC50 (Colletotrichum truncatum): 28.2 µg/mL (≈ 130 µM)
- EC50 (Phytophthora capsici): 111 µg/mL (≈ 515 µM)
- EC50 (Fusarium graminearum [3]): 0.141 µg/mL (≈ 0.652 µM)
- EC50 (Fusarium oxysporum): 3.56 µg/mL (≈ 16.5 µM)
- EC50 (Botrytis cinerea): 72.2 µg/mL (≈ 334 µM)
